pKi: −log10 of the molar value. Values after ≈ are worked out from the molar mass of the structure shown.
Assays:
rice = experiment: Concentration that affords 90% control of blast disease on rice plants by multiple rate foliar rice blast assay; format: functional
Scytalone dehydratase [1] = target: T1, Scytalone dehydratase (Magnaporthe oryzae (strain 70-15 / FGSC 8958) (Rice blast fungus)(Pyricularia oryzae), UniProt P56221)
T1 sequence (P56221 whole entry): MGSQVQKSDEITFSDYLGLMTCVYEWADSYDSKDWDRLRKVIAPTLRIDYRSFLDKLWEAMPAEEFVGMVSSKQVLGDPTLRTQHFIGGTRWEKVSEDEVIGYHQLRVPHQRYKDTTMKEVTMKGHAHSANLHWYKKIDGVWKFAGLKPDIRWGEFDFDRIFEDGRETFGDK

Scytalone dehydratase [2] = target: T1, Scytalone dehydratase; remark: listed apart in the source

Q: For `CC(COc1ccccc1)NC(=O)C(C#N)C(C)(C)C` (stereo not given), which ED90 (rice) is on record?
A: Its ED90 is 200 µg/mL (≈ 729 µM).

Q: What about the pKi (Scytalone dehydratase [1]) of the same compound?
A: Its pKi is 8.55.

Q: What about the “Adjusted Ki” value (Scytalone dehydratase [2]) of the same compound?
A: Its value is 700 pM.

Q: Which ED90 (rice) does the source give for `C[C@H](COc1cc(F)ccc1F)NC(=O)[C@@H](C#N)C(C)(C)C` here?
A: Its ED90 is 0.8 µg/mL (≈ 2.58 µM).

Q: And the pKi (Scytalone dehydratase [1])?
A: Its pKi is 10.70.

Q: And the “Adjusted Ki” value (Scytalone dehydratase [2])?
A: Its value is 20 pM.

Q: `CC[C@]1(C(=O)N[C@H](C)COc2cccc(F)c2F)C(C)C1(Cl)Cl` (stereo not given in full) was tested. Which ED90 (rice) did it give?
A: Its ED90 is 100 µg/mL (≈ 273 µM).

Q: And the pKi (Scytalone dehydratase [1])?
A: The pKi was 8.66.

Q: What about the “Adjusted Ki” value (Scytalone dehydratase [2]) of the same compound?
A: Its value is 2200 pM.

Q: Which results are given for `C[C@H](COc1ccccc1F)NC(=O)[C@@H](C#N)C(C)(C)C`?
A: ED90 (rice): 25 µg/mL (≈ 85.5 µM); pKi (Scytalone dehydratase [1]): 10.10; Adjusted Ki (Scytalone dehydratase [2]): 80 pM

Q: With `CC[C@]1(C(=O)NCCOc2ccccc2)C(C)C1(Cl)Cl` (stereo not given in full) as the compound, how does the ED90 (rice) read?
A: Its ED90 is 200 µg/mL (≈ 632 µM).

Q: And the pKi (Scytalone dehydratase [1])?
A: Its pKi is 8.12.

Q: And the “Adjusted Ki” value (Scytalone dehydratase [2])?
A: The value was 3700 pM.

Q: `CC[C@]1(C(=O)N[C@H](C)COc2ccccc2)C(C)C1(Cl)Cl` (stereo not given in full) was tested. Which ED90 (rice) did it give?
A: Its ED90 is 30 µg/mL (≈ 90.8 µM).

Q: What about the pKi (Scytalone dehydratase [1]) of the same compound?
A: Its pKi is 9.77.

Q: And the “Adjusted Ki” value (Scytalone dehydratase [2])?
A: The value was 83.5 pM.

Q: For `C[C@@H](COc1cc(F)ccc1F)NC(=O)[C@H](C#N)C(C)(C)C`, which ED90 (rice) is on record?
A: The ED90 was > 200 µg/mL.

Q: What about the pKi (Scytalone dehydratase [1]) of the same compound?
A: The pKi was 7.01.

Q: What about the “Adjusted Ki” value (Scytalone dehydratase [2]) of the same compound?
A: The value was 97000 pM.

Q: For `C[C@H](COc1ccc(F)cc1)NC(=O)C(C#N)C(C)(C)C` (stereo not given in full), which ED90 (rice) is on record?
A: The ED90 was 100 µg/mL (≈ 342 µM).

Q: And the pKi (Scytalone dehydratase [1])?
A: Its pKi is 8.77.

Q: And the “Adjusted Ki” value (Scytalone dehydratase [2])?
A: The value was 830 pM.

Q: Which ED90 (rice) does the source give for `CC[C@]1(C(=O)NC(C)CCc2ccccc2)C(C)C1(Cl)Cl` (stereo not given in full) here?
A: Its ED90 is 30 µg/mL (≈ 91.4 µM).

Q: And the pKi (Scytalone dehydratase [1])?
A: Its pKi is 9.08.

Q: What about the “Adjusted Ki” value (Scytalone dehydratase [2]) of the same compound?
A: The value was 210 pM.

Q: How did the ED90 (rice) turn out when `C[C@H](COc1cccc(F)c1)NC(=O)[C@@H](C#N)C(C)(C)C` was run?
A: Its ED90 is 25 µg/mL (≈ 85.5 µM).

Q: What about the pKi (Scytalone dehydratase [1]) of the same compound?
A: Its pKi is 9.62.

Q: What about the “Adjusted Ki” value (Scytalone dehydratase [2]) of the same compound?
A: The value was 240 pM.

Q: Which results are given for `C[C@H](COc1cc(F)ccc1F)NC(=O)[C@H](C#N)C(C)(C)C`?
A: ED90 (rice): 6.2 µg/mL (≈ 20 µM); pKi (Scytalone dehydratase [1]): 9.14; Adjusted Ki (Scytalone dehydratase [2]): 730 pM

Q: `CC[C@]1(C(=O)NCCCc2ccccc2)C(C)C1(Cl)Cl` (stereo not given in full) was tested. Which ED90 (rice) did it give?
A: Its ED90 is 30 µg/mL (≈ 95.5 µM).

Q: And the pKi (Scytalone dehydratase [1])?
A: The pKi was 8.72.

Q: What about the “Adjusted Ki” value (Scytalone dehydratase [2]) of the same compound?
A: Its value is 960 pM.

Q: `CC[C@]1(C(=O)N[C@H](C)COc2cccc(F)c2)C(C)C1(Cl)Cl` (stereo not given in full) was tested. Which ED90 (rice) did it give?
A: Its ED90 is 30 µg/mL (≈ 86.1 µM).

Q: What about the pKi (Scytalone dehydratase [1]) of the same compound?
A: Its pKi is 9.96.

Q: And the “Adjusted Ki” value (Scytalone dehydratase [2])?
A: The value was 57 pM.

Q: Which results are given for `C[C@H](COc1ccccc1)NC(=O)[C@@H](C#N)C(C)(C)C` (stereo in doubt; 6f) [listing 1 of 2 here]?
A: pKi (Scytalone dehydratase [1]): 9.24; Adjusted Ki (Scytalone dehydratase [2]): 580 pM

Q: With `C[C@H](COc1cccc(F)c1F)NC(=O)[C@@H](C#N)C(C)(C)C` as the compound, how does the ED90 (rice) read?
A: The ED90 was 25 µg/mL (≈ 80.6 µM).

Q: And the pKi (Scytalone dehydratase [1])?
A: Its pKi is 9.02.

Q: And the “Adjusted Ki” value (Scytalone dehydratase [2])?
A: Its value is 950 pM.

Q: Which results are given for `CC(CCc1ccccc1)NC(=O)C(C#N)C(C)(C)C` (stereo not given)?
A: ED90 (rice): > 200 µg/mL; pKi (Scytalone dehydratase [1]): 8.14; Adjusted Ki (Scytalone dehydratase [2]): 1800 pM

Q: `C[C@H](COc1ccccc1)NC(=O)c1cc(F)ccc1O` was tested. Which pKi (Scytalone dehydratase [1]) did it give?
A: The pKi was 9.36.

Q: What does the source list for `CC[C@]1(C(=O)N[C@H](C)COc2ccc(F)cc2)C(C)C1(Cl)Cl` (stereo not given in full)?
A: ED90 (rice): 30 µg/mL (≈ 86.1 µM); pKi (Scytalone dehydratase [1]): 9.66; Adjusted Ki (Scytalone dehydratase [2]): 110 pM

Q: What does the source list for `CC[C@]1(C(=O)NC(C)COc2ccccc2)C(C)C1(Cl)Cl` (stereo not given in full)?
A: ED90 (rice): 50 µg/mL (≈ 151 µM); pKi (Scytalone dehydratase [1]): 9.42; Adjusted Ki (Scytalone dehydratase [2]): 94 pM

Q: With `C[C@H](COc1ccccc1)NC(=O)[C@@H](C#N)C(C)(C)C` (stereo in doubt; 6e) [listing 1 of 2 here] as the compound, how does the pKi (Scytalone dehydratase [1]) read?
A: Its pKi is 8.89.

Q: What about the “Adjusted Ki” value (Scytalone dehydratase [2]) of the same compound?
A: The value was 660 pM.

Q: `CC[C@]1(C(=O)N[C@H](C)COc2cc(F)ccc2F)C(C)C1(Cl)Cl` (stereo not given in full) was tested. Which ED90 (rice) did it give?
A: The ED90 was 6 µg/mL (≈ 16.4 µM).

Q: What about the pKi (Scytalone dehydratase [1]) of the same compound?
A: Its pKi is 10.07.

Q: And the “Adjusted Ki” value (Scytalone dehydratase [2])?
A: Its value is 42 pM.

Q: How did the ED90 (rice) turn out when `C[C@H](COc1ccccc1)NC(=O)[C@H](C#N)C(C)(C)C` was run?
A: Its ED90 is > 200 µg/mL.

Q: What about the pKi (Scytalone dehydratase [1]) of the same compound?
A: Its pKi is 7.18.

Q: And the “Adjusted Ki” value (Scytalone dehydratase [2])?
A: The value was 33000 pM.

Q: What does the source list for `CC[C@]1(C(=O)N[C@@H](C)COc2cc(F)ccc2F)C(C)C1(Cl)Cl` (stereo not given in full)?
A: ED90 (rice): 100 µg/mL (≈ 273 µM); pKi (Scytalone dehydratase [1]): 7.48; Adjusted Ki (Scytalone dehydratase [2]): 16000 pM

Q: For `C[C@H](COc1ccccc1)NC(=O)[C@@H](C#N)C(C)(C)C` (stereo in doubt; 6f) [listing 2 of 2 here], which ED90 (rice) is on record?
A: Its ED90 is 25 µg/mL (≈ 91.1 µM).

Q: `C[C@@H](COc1cc(F)ccc1F)NC(=O)[C@@H](C#N)C(C)(C)C` was tested. Which ED90 (rice) did it give?
A: The ED90 was > 200 µg/mL.

Q: What about the pKi (Scytalone dehydratase [1]) of the same compound?
A: Its pKi is 8.11.

Q: What about the “Adjusted Ki” value (Scytalone dehydratase [2]) of the same compound?
A: The value was 7700 pM.

Q: How did the ED90 (rice) turn out when `CC[C@]1(C(=O)N[C@H](C)COc2ccccc2F)C(C)C1(Cl)Cl` (stereo not given in full) was run?
A: Its ED90 is 50 µg/mL (≈ 144 µM).

Q: And the pKi (Scytalone dehydratase [1])?
A: The pKi was 9.43.

Q: And the “Adjusted Ki” value (Scytalone dehydratase [2])?
A: The value was 190 pM.

Q: How did the ED90 (rice) turn out when `CC(C)(C)C(C#N)C(=O)NCCCc1ccccc1` (stereo not given) was run?
A: The ED90 was 200 µg/mL (≈ 774 µM).

Q: And the pKi (Scytalone dehydratase [1])?
A: Its pKi is 7.87.

Q: And the “Adjusted Ki” value (Scytalone dehydratase [2])?
A: The value was 6800 pM.

Q: With `CC(COc1cccc(F)c1)NC(=O)[C@@H](C#N)C(C)(C)C` (stereo not given in full) as the compound, how does the ED90 (rice) read?
A: The ED90 was 25 µg/mL (≈ 85.5 µM).

Q: What about the pKi (Scytalone dehydratase [1]) of the same compound?
A: Its pKi is 9.34.

Q: What about the “Adjusted Ki” value (Scytalone dehydratase [2]) of the same compound?
A: Its value is 230 pM.

Q: How did the ED90 (rice) turn out when `C[C@H](COc1cc(F)ccc1F)NC(=O)C(C#N)C(C)(C)C` (stereo not given in full) was run?
A: The ED90 was 6.2 µg/mL (≈ 20 µM).

Q: And the pKi (Scytalone dehydratase [1])?
A: Its pKi is 10.38.

Q: What about the “Adjusted Ki” value (Scytalone dehydratase [2]) of the same compound?
A: The value was 21 pM.

Q: What does the source list for `CC(COc1ccccc1F)NC(=O)C(C#N)C(C)(C)C` (stereo not given)?
A: ED90 (rice): 50 µg/mL (≈ 171 µM); pKi (Scytalone dehydratase [1]): 9.62; Adjusted Ki (Scytalone dehydratase [2]): 59 pM

Q: For `C[C@H](COc1ccccc1)NC(=O)[C@@H](C#N)C(C)(C)C` (stereo in doubt; 6e) [listing 2 of 2 here], which ED90 (rice) is on record?
A: The ED90 was 100 µg/mL (≈ 364 µM).

From ChEMBL document CHEMBL1131741, “Design of scytalone dehydratase inhibitors as rice blast fungicides: (N-phenoxypropyl)-carboxamides” (Bioorg Med Chem Lett, 1999)
